Among the data in patent US10919852B2, “Immunomodulator compounds” (CHEMOCENTRYX, INC., priority 2017, dated 2021) are IC50 values, retold here.

The experiment concerns the target human PD-L1 / Human PD-1 (Homo sapiens (Human), UniProt Q9NZQ7). In words: Enzyme-Linked Immunosorbent Assay (ELISA), PD-1/PD-L1 binding. As to conditions: plate-coated human PD-L1, biotinylated human PD-1. In outline: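 Plates were coated with human PD-L1 at […]. Biotinylated human PD-1 (0.3 μg/mL) was added with 1:5 serially diluted compound for 1 h at 37 °C. Bound PD-1 was detected with streptavidin-HRP (1 h) and TMB (20 min), with absorbance read at 450 nm.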

Molecules are shown by their SMILES. Bounds are passed on as bounds.

Sequence of human PD-L1 / Human PD-1 (Q9NZQ7 19-239): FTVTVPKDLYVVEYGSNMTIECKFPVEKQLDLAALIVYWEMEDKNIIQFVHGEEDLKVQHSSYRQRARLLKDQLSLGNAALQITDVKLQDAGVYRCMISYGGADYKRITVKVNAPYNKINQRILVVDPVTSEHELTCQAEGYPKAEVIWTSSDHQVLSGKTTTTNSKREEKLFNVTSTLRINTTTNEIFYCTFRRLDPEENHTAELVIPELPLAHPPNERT

The compound `CCOc1cc(O[C@H]2CCc3c(-c4cccc(OCCCN5CCCC5(C)C)c4C)cccc32)c(Cl)cc1CNC[C@@H]1CCC(=O)N1` [drawing 395] returned an IC50 below 5 nM.
